Results: US11998539B2, “Substituted aminoquinolones as DGKalpha inhibitors for immune activation” (Bayer Aktiengesellschaft, priority 2019, dated 2024)

Molecular target: DGKα (Homo sapiens (Human), UniProt P23743)
Assay: Human DGKα kinase activity inhibition assay (ADP-Glo)
Assay type: biochemical
Conditions: recombinant full-length human DGKα, 55 μM ATP, 7 μM 1,2-dioleoyl-sn-glycerol, read-out: IC50 values of examples in in vitro human DGKa kinase activity inhibition assays
Procedure, shortened: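 Activity was measured as ADP production, detected by luciferase luminescence after removal of unused ATP. The enzyme was baculovirus-expressed full-length human DGKα with a C-terminal FLAG tag. The substrate was 1,2-dioleoyl-sn-glycerol in detergent micelles, and compounds came from 100× DMSO solutions.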

DGKα, sequence (P23743 other isoform, or with tags, fused parts or gaps): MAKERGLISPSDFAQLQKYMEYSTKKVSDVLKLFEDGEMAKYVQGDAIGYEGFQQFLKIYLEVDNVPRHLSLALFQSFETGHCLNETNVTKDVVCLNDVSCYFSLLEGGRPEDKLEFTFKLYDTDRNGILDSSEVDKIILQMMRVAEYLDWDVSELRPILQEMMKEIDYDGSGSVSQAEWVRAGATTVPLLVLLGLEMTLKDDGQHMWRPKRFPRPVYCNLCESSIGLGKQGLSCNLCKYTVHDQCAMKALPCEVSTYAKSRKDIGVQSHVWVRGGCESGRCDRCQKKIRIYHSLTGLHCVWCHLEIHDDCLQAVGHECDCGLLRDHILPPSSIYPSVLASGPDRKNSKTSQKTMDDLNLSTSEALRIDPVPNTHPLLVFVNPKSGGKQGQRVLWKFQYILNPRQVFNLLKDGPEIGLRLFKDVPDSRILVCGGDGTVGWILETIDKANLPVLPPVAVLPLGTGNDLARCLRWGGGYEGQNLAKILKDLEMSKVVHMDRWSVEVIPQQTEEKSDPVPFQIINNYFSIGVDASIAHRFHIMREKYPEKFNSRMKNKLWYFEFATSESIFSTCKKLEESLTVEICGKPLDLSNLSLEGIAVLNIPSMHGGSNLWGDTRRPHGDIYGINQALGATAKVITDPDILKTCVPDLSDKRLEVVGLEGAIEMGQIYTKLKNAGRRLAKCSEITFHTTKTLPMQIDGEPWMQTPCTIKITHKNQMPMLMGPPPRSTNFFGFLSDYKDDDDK

SMILES	IC50 [nM]
Cc1nc2cc(C3CCN(c4c(C#N)c(=O)n(C)c5ccccc45)CC3)ccc2s1 [Example 346, 1-methyl-4-[4-(2-methyl-1,3-benzothiazol-5-yl)piperidin-1-yl]-2-oxo-1,2-dihydroquinoline-3-carbonitrile]	28
Cc1ccccc1-c1noc(C2CCN(c3c(C#N)c(=O)n(C)c4ccccc34)CC2)n1 [Example 348, 1-methyl-4-{4-[3-(2-methylphenyl)-1,2,4-oxadiazol-5-yl]piperidin-1-yl}-2-oxo-1,2-dihydroquinoline-3-carbonitrile]	7.9
COc1ccc(-c2noc(C3CCN(c4c(C#N)c(=O)n(C)c5ccccc45)CC3)n2)cc1 [Example 349, 4-{4-[3-(4-methoxyphenyl)-1,2,4-oxadiazol-5-yl]piperidin-1-yl}-1-methyl-2-oxo-1,2-dihydroquinoline-3-carbonitrile]	15
Cc1cccc(-c2noc(C3CCN(c4c(C#N)c(=O)n(C)c5ccccc45)CC3)n2)c1 [Example 350, 1-methyl-4-{4-[3-(3-methylphenyl)-1,2,4-oxadiazol-5-yl]piperidin-1-yl}-2-oxo-1,2-dihydroquinoline-3-carbonitrile]	11
Cc1ccccc1-c1nnc(C2CCN(c3c(C#N)c(=O)n(C)c4ccccc34)CC2)o1 [Example 351, 1-methyl-4-{4-[5-(2-methylphenyl)-1,3,4-oxadiazol-2-yl]piperidin-1-yl}-2-oxo-1,2-dihydroquinoline-3-carbonitrile]	87
Cc1ccc(-c2nnc(C3CCN(c4c(C#N)c(=O)n(C)c5ccccc45)CC3)o2)cc1 [Example 352, 1-methyl-4-{4-[5-(4-methylphenyl)-1,3,4-oxadiazol-2-yl]piperidin-1-yl}-2-oxo-1,2-dihydroquinoline-3-carbonitrile]	113
Cc1cccc(-c2nnc(C3CCN(c4c(C#N)c(=O)n(C)c5ccccc45)CC3)o2)c1 [Example 353, 1-methyl-4-{4-[5-(3-methylphenyl)-1,3,4-oxadiazol-2-yl]piperidin-1-yl}-2-oxo-1,2-dihydroquinoline-3-carbonitrile]	254
Cn1c(=O)c(C#N)c(N2CCC(c3nnc(-c4cccc(Cl)c4)o3)CC2)c2ccccc21 [Example 354, 4-{4-[5-(3-chlorophenyl)-1,3,4-oxadiazol-2-yl]piperidin-1-yl}-1-methyl-2-oxo-1,2-dihydroquinoline-3-carbonitrile]	112
Cn1c(=O)c(C#N)c(N2CCC(C)(c3nnc(-c4cccc(Cl)c4)o3)CC2)c2ccccc21 [Example 355, 4-{4-[5-(3-chlorophenyl)-1,3,4-oxadiazol-2-yl]-4-methylpiperidin-1-yl}-1-methyl-2-oxo-1,2-dihydroquinoline-3-carbonitrile]	140
Cn1c(=O)c(C#N)c(N2CCC(c3ccc4c(c3)C(C)(C)CN4)CC2)c2ccccc21 [Example 356, 4-[4-(3,3-dimethyl-2,3-dihydro-1H-indol-5-yl)piperidin-1-yl]-1-methyl-2-oxo-1,2-dihydroquinoline-3-carbonitrile]	5.1
CN1C(=O)C(C)(C)c2cc(C3CCN(c4c(C#N)c(=O)n(C)c5ccccc45)CC3)ccc21 [Example 358, 1-methyl-2-oxo-4-[4-(1,3,3-trimethyl-2-oxo-2,3-dihydro-1H-indol-5-yl)piperidin-1-yl]-1,2-dihydroquinoline-3-carbonitrile]	44
Cn1c(=O)c(C#N)c(N2CCC(c3ccc4c(c3)CC(O)C4)CC2)c2ccccc21 (stereo not drawn) [Example 359, 4-[4-(2-hydroxy-2,3-dihydro-1H-inden-5-yl)piperidin-1-yl]-1-methyl-2-oxo-1,2-dihydroquinoline-3-carbonitrile]	3.3
Cn1c(=O)c(C#N)c(N2CCC(c3ccc4c(c3)OC(C)(C)O4)CC2)c2ccccc21 [Example 360, 4-[4-(2,2-dimethyl-2H-1,3-benzodioxol-5-yl)piperidin-1-yl]-1-methyl-2-oxo-1,2-dihydroquinoline-3-carbonitrile]	1.2
Cn1c(=O)c(C#N)c(N2CCC(c3ccc4c(c3)C3(CCC3)C(=O)N4)CC2)c2ccccc21 [Example 361, 1-methyl-2-oxo-4-[4-(2′-oxo-1′,2′-dihydrospiro[cyclobutane-1,3′-indol]-5′-yl)piperidin-1-yl]-1,2-dihydroquinoline-3-carbonitrile]	27
Cn1c(=O)oc2cc(C3CCN(c4c(C#N)c(=O)n(C)c5ccccc45)CC3)ccc21 [Example 362, 1-methyl-4-[4-(3-methyl-2-oxo-2,3-dihydro-1,3-benzoxazol-6-yl)piperidin-1-yl]-2-oxo-1,2-dihydroquinoline-3-carbonitrile]	106
Cc1cc(C2(C)CCN(c3c(C#N)c(=O)n(C)c4ccccc34)CC2)nc2ccccc12 [Example 364, 1-methyl-4-[4-methyl-4-(4-methylquinolin-2-yl)piperidin-1-yl]-2-oxo-1,2-dihydroquinoline-3-carbonitrile]	34
Cn1ccc2c(F)cc(C3CCN(c4c(C#N)c(=O)n(C)c5ccccc45)CC3)cc21 [Example 365, 4-[4-(4-fluoro-1-methyl-1H-indol-6-yl)piperidin-1-yl]-1-methyl-2-oxo-1,2-dihydroquinoline-3-carbonitrile]	14
Cc1cccc(-n2ccc(C3CCN(c4c(C#N)c(=O)n(C)c5ccccc45)CC3)n2)c1 [Example 366, 1-methyl-4-{4-[1-(3-methylphenyl)-1H-pyrazol-3-yl]piperidin-1-yl}-2-oxo-1,2-dihydroquinoline-3-carbonitrile]	12
Cc1ccccc1-n1ccc(C2CCN(c3c(C#N)c(=O)n(C)c4ccccc34)CC2)n1 [Example 367, 1-methyl-4-{4-[1-(2-methylphenyl)-1H-pyrazol-3-yl]piperidin-1-yl}-2-oxo-1,2-dihydroquinoline-3-carbonitrile]	21
Cn1c(=O)c(C#N)c(N2CCC(c3ccn(-c4cccc(Cl)c4)n3)CC2)c2ccccc21 [Example 368, 4-{4-[1-(3-chlorophenyl)-1H-pyrazol-3-yl]piperidin-1-yl}-1-methyl-2-oxo-1,2-dihydroquinoline-3-carbonitrile]	13
Cn1c(=O)c(C#N)c(N2CCC(c3ccn(-c4ccc(Cl)cc4)n3)CC2)c2ccccc21 [Example 369, 4-{4-[1-(4-chlorophenyl)-1H-pyrazol-3-yl]piperidin-1-yl}-1-methyl-2-oxo-1,2-dihydroquinoline-3-carbonitrile]	14
Cn1c(=O)c(C#N)c(N2CCC(c3nc(-c4cccnc4)no3)CC2)c2ccccc21 [Example 370, 1-methyl-2-oxo-4-{4-[3-(pyridin-3-yl)-1,2,4-oxadiazol-5-yl]piperidin-1-yl}-1,2-dihydroquinoline-3-carbonitrile]	158
Cc1ccc2cc(C3CCN(c4c(C#N)c(=O)n(C)c5ccccc45)CC3)ccc2n1 [Example 371, 1-methyl-4-[4-(2-methylquinolin-6-yl)piperidin-1-yl]-2-oxo-1,2-dihydroquinoline-3-carbonitrile]	14
COc1cccc(-c2csc(C3CCN(c4c(C#N)c(=O)n(C)c5ccccc45)CC3)n2)c1 [Example 372, 4-{4-[4-(3-methoxyphenyl)-1,3-thiazol-2-yl]piperidin-1-yl}-1-methyl-2-oxo-1,2-dihydroquinoline-3-carbonitrile]	14
